Data from publication PMC3779694 (Hepatology (Baltimore, Md.), 2011).
“Also recorded” adds a separate entry of the source.

How the values were obtained:
Type in all cases: in vivo, human
[1] = system: adults with NASH; assay: Adverse events, phase 2 trial; conditions: for Nausea / No. of subjects with at least one AE / Pain in extremity / Somnolence / Total no. of events (AEs) / Abdominal pain / Abdominal pain upper / Arthralgia / Asthenia / Back pain / Constipation / Diarrhea / Dizziness / Dry mouth / Dyspepsia / Fatigue / Gastroesophageal reflux disease / Headache / Nasopharyngitis: during treatment
[2] = system: adults with NASH; assay: Serum caspase-3-cleaved CK-18 fragments; conditions: mean (SD)
[3] = system: adults with NASH; assay: Exploratory pharmacokinetic/pharmacodynamic modeling; conditions: mean exposure with 40 mg; inhibitory Emax model
[4] = system: adults with NASH; assay: Serum AST, phase 2 placebo-controlled trial of GS-9450 for 4 weeks; conditions: for AST, %Change at Week 4 / AST, Change at Week 2 / AST, Change at Week 4: mean (SD)
[5] = range across the GS-9450 treatment groups

Question: How did the Nausea ([1]; 5 mg (n = 26)) turn out when `CC(C)[C@@]1(C(=O)N[C@H]2CC(=O)O[C@]2(O)CF)CC(c2nccc3ccccc23)=NO1` [GS-9450] was run?
Answer: 1 (4) n (%)

Question: And the “No. of subjects with at least one AE” value ([1]; 5 mg (n = 26))?
Answer: 22 (85) n (%)

Question: And the Pain in extremity ([1]; 5 mg (n = 26))?
Answer: 0 n (%)

Question: What about the Somnolence ([1]; 5 mg (n = 26)) of the same compound?
Answer: 2 (8) n (%)

Question: What about the “Total no. of events (AEs)” value ([1]; 5 mg (n = 26)) of the same compound?
Answer: 64

Question: And the “frequency of treatment-emergent AEs during the 4-week on-treatment period” value ([1]; 10 mg)?
Answer: 75%

Question: What about the Abdominal pain ([1]; 10 mg (n = 24)) of the same compound?
Answer: 1 (4) n (%)

Question: And the Abdominal pain upper ([1]; 10 mg (n = 24))?
Answer: 4 (17) n (%)

Question: What about the Arthralgia ([1]; 10 mg (n = 24)) of the same compound?
Answer: 1 (4) n (%)

Question: And the Asthenia ([1]; 10 mg (n = 24))?
Answer: 1 (4) n (%)

Question: What about the Back pain ([1]; 10 mg (n = 24)) of the same compound?
Answer: 0 n (%)

Question: What about the Constipation ([1]; 10 mg (n = 24)) of the same compound?
Answer: 0 n (%)

Question: And the Diarrhea ([1]; 10 mg (n = 24))?
Answer: 6 (25) n (%)

Question: And the Dizziness ([1]; 10 mg (n = 24))?
Answer: 0 n (%)

Question: What about the Dry mouth ([1]; 10 mg (n = 24)) of the same compound?
Answer: 2 (8) n (%)

Question: And the Dyspepsia ([1]; 10 mg (n = 24))?
Answer: 1 (4) n (%)

Question: And the Fatigue ([1]; 10 mg (n = 24))?
Answer: 2 (8) n (%)

Question: And the Gastroesophageal reflux disease ([1]; 10 mg (n = 24))?
Answer: 0 n (%)

Question: And the Headache ([1]; 10 mg (n = 24))?
Answer: 4 (17) n (%)

Question: And the Nasopharyngitis ([1]; 10 mg (n = 24))?
Answer: 0 n (%)

Question: And the Nausea ([1]; 10 mg (n = 24))?
Answer: 3 (13) n (%)

Question: What about the “No. of subjects with at least one AE” value ([1]; 10 mg (n = 24)) of the same compound?
Answer: 18 (75) n (%)

Question: What about the Pain in extremity ([1]; 10 mg (n = 24)) of the same compound?
Answer: 1 (4) n (%)

Question: What about the Somnolence ([1]; 10 mg (n = 24)) of the same compound?
Answer: 0 n (%)

Question: And the “Total no. of events (AEs)” value ([1]; 10 mg (n = 24))?
Answer: 67

Question: What about the “frequency of treatment-emergent AEs during the 4-week on-treatment period” value ([1]; 40 mg) of the same compound?
Answer: 80%

Question: What about the Abdominal pain ([1]; 40 mg (n = 25)) of the same compound?
Answer: 1 (4) n (%)

Question: What about the Abdominal pain upper ([1]; 40 mg (n = 25)) of the same compound?
Answer: 1 (4) n (%)

Question: And the Arthralgia ([1]; 40 mg (n = 25))?
Answer: 3 (12) n (%)

Question: What about the Asthenia ([1]; 40 mg (n = 25)) of the same compound?
Answer: 0 n (%)

Question: What about the Back pain ([1]; 40 mg (n = 25)) of the same compound?
Answer: 1 (4) n (%)

Question: And the Constipation ([1]; 40 mg (n = 25))?
Answer: 2 (8) n (%)

Question: And the Diarrhea ([1]; 40 mg (n = 25))?
Answer: 5 (20) n (%)

Question: What about the Dizziness ([1]; 40 mg (n = 25)) of the same compound?
Answer: 2 (8) n (%)

Question: What about the Dry mouth ([1]; 40 mg (n = 25)) of the same compound?
Answer: 1 (4) n (%)

Question: What about the Dyspepsia ([1]; 40 mg (n = 25)) of the same compound?
Answer: 1 (4) n (%)

Question: What about the Fatigue ([1]; 40 mg (n = 25)) of the same compound?
Answer: 2 (8) n (%)

Question: What about the Gastroesophageal reflux disease ([1]; 40 mg (n = 25)) of the same compound?
Answer: 3 (12) n (%)

Question: And the Headache ([1]; 40 mg (n = 25))?
Answer: 4 (16) n (%)

Question: And the Nasopharyngitis ([1]; 40 mg (n = 25))?
Answer: 2 (8) n (%)

Question: And the Nausea ([1]; 40 mg (n = 25))?
Answer: 3 (12) n (%)

Question: And the “No. of subjects with at least one AE” value ([1]; 40 mg (n = 25))?
Answer: 20 (80) n (%)

Question: What about the Pain in extremity ([1]; 40 mg (n = 25)) of the same compound?
Answer: 2 (8) n (%)

Question: And the Somnolence ([1]; 40 mg (n = 25))?
Answer: 0 n (%)

Question: What about the “Total no. of events (AEs)” value ([1]; 40 mg (n = 25)) of the same compound?
Answer: 60

Question: What about the “subjects who left the study because of a treatment-related AE” value ([1]; 40 mg, moderate facial flushing from day 1) of the same compound?
Answer: One subject

Question: And the “overall safety and tolerability” value ([1]; 4 weeks, 1-40 mg)?
Answer: safe and well tolerated

Question: And the “serious adverse events during the on-treatment period” value ([1]; all GS-9450 doses, 4 weeks)?
Answer: No serious adverse events; also recorded: no serious AEs (SAEs)

Question: And the “deaths during the study” value ([1]; all groups)?
Answer: no deaths

Question: And the “CK-18 fragments, %Change at Week 4” value ([2]; 1 mg once daily)?
Answer: 23 (81) %

Question: And the “CK-18 fragments, Change at Week 2” value ([2]; 1 mg once daily)?
Answer: 164 (384) U/L

Question: And the “CK-18 fragments, Change at Week 4” value ([2]; 1 mg once daily)?
Answer: 192 (584) U/L

Question: What about the “CK-18 fragments, %Change at Week 4” value ([2]; 5 mg once daily) of the same compound?
Answer: 25 (120) %

Question: What about the “CK-18 fragments, Change at Week 2” value ([2]; 5 mg once daily) of the same compound?
Answer: −116 (608) U/L

Question: What about the “CK-18 fragments, Change at Week 4” value ([2]; 5 mg once daily) of the same compound?
Answer: 96 (641) U/L

Question: What about the “CK-18 fragments, %Change at Week 4” value ([2]; 10 mg once daily) of the same compound?
Answer: −26 (38) %

Question: What about the “CK-18 fragments, Change at Week 2” value ([2]; 10 mg once daily) of the same compound?
Answer: −460 (866) U/L

Question: And the “CK-18 fragments, Change at Week 4” value ([2]; 10 mg once daily)?
Answer: −393 (723) U/L

Question: And the “mean CK-18 fragment levels had decreased to, by week 4” value ([2]; 10 mg)?
Answer: 393 (723) U/L

Question: What about the “CK-18 fragments, %Change at Week 4” value ([2]; 40 mg once daily) of the same compound?
Answer: −19 (32) %

Question: And the “CK-18 fragments, Change at Week 2” value ([2]; 40 mg once daily)?
Answer: −140 (490) U/L

Question: What about the “CK-18 fragments, Change at Week 4” value ([2]; 40 mg once daily) of the same compound?
Answer: −125 (212) U/L

Question: What about the “mean CK-18 fragment levels had decreased to, by week 4” value ([2]; 40 mg) of the same compound?
Answer: 125 (212) U/L

Question: And the “response as percent of the maximal effect achievable with GS-9450 (week 4 difference in ALT or CK-18 fragments)” value [3]?
Answer: at least 82%

Question: And the “AST, %Change at Week 4” value ([4]; 1 mg once daily)?
Answer: −2 (41) %

Question: What about the “AST, Change at Week 2” value ([4]; 1 mg once daily) of the same compound?
Answer: −4 (36) U/L

Question: What about the “AST, Change at Week 4” value ([4]; 1 mg once daily) of the same compound?
Answer: −8 (35) U/L

Question: And the “AST, %Change at Week 4” value ([4]; 5 mg once daily)?
Answer: −6 (38) %

Question: What about the “AST, Change at Week 2” value ([4]; 5 mg once daily) of the same compound?
Answer: −12 (16) U/L

Question: What about the “AST, Change at Week 4” value ([4]; 5 mg once daily) of the same compound?
Answer: −5 (24) U/L

Question: What about the “AST, %Change at Week 4” value ([4]; 10 mg once daily) of the same compound?
Answer: −16 (29) %

Question: And the “AST, Change at Week 2” value ([4]; 10 mg once daily)?
Answer: −22 (34) U/L

Question: And the “AST, Change at Week 4” value ([4]; 10 mg once daily)?
Answer: −12 (36) U/L

Question: And the “mean AST decrease from baseline to week 4” value ([4]; 40 mg)?
Answer: 13 U/L

Question: And the “proportion of subjects with normal AST, peak at day 3” value ([4]; 40 mg)?
Answer: 77%

Question: What about the “AST, %Change at Week 4” value ([4]; 40 mg once daily) of the same compound?
Answer: −20 (26) %

Question: And the “AST, Change at Week 2” value ([4]; 40 mg once daily)?
Answer: −16 (20) U/L

Question: And the “AST, Change at Week 4” value ([4]; 40 mg once daily)?
Answer: −13 (20) U/L

Question: What about the “proportion of subjects with normal AST at week 4” value ([4]; 40 mg, 20% at baseline, normal 36 U/L males, 34 U/L females) of the same compound?
Answer: 48%

Question: And the “mean AST within 1 week of stopping study medication” value ([4]; all GS-9450 treatment groups)?
Answer: modestly above baseline levels

Question: And the “AST mean (SD) changes by treatment week 4” value [4, 5]?
Answer: −5 (24) to −13 (20) U/L

Question: And the “AST mean changes from baseline over the first week of treatment” value [4, 5]?
Answer: −9 (23) to −27 (29) U/L
